Source: US20110212899A1, “Corneal Neuritogenesis Promoter Containing Pacap and Its Derivative” (priority 2004, published 2011)
Where no end group is shown, it is not given here.

Legend:
[1] = tested on: excised rabbit lacrimal gland; assay: Promoting effect on protein secretion from an excised lacrimal gland (2) (Test Example 5); type: cell-based; details: 10^−7 M, incubated 60 minutes; p<0.05
Method: A lacrimal gland was excised from a rabbit and incubated in a solution containing PACAP27 or peptide 24, and changes in the amount of secreted protein were examined as lacrimal gland stimulating activity.
(§1) Japanese white rabbits with a body weight of 1.5 to 2.0 kg purchased from Fukusaki Rabbit warren were used. The animals were each put in separate cages placed in a room wherein a temperature of 23±3° C. and a humidity of 55±10% were kept and a light was on for 12 hours per day (lighting at 8:00 and lights-out at 20:00), and raised after arrival until the final day of the test. The animals were given 100 g of solid feed (Labo R Stock, Nosan Corporation) per day, and could freely have tap water.
PACAP27 and peptide 24 were used as test substances. Test substance solutions were prepared as follows. […]
The section sample in a stationary state was incubated in 0.5 mL of a fresh incubation solution at 37° C. for 20 minutes under a mixed gas atmosphere of 95% oxygen and 5% carbon dioxide. After completion of the incubation, the incubation solution was collected, and the protein amount in the solution was determined by using a protein staining reagent (DC Protein Assay Reagent, Bio Rad). […] The incubation solution was collected, and the protein amount in the incubation solution was determined. […]

[2] = tested on: rabbit cornea (corneal flap model); assay: Improving effect on reduced sensitivity of the rabbit cornea caused by using a microkeratome (2) (Test Example 7); type: in vivo; details: 0.01% eye drops, 50 μL 4 times a day for 8 weeks; 7 and 8 weeks after creation of the corneal flap
Method: as §1, with “Male Japanese” for “Japanese”, “Kitayama Labes Co., Ltd” for “Fukusaki Rabbit warren”
Peptide 24 was used as a test substance. The test substance was dissolved in the following vehicle solution at a concentration of 0.01% to prepare eye drops. […]
Corneal sensitivity was measured before the surgery and once a week from the first week to the eighth week after the surgery using the Cochet-Bonnet aesthesiometer.
Corneal sensitivity was determined by the frequency of eyeblink responses induced when a nylon filament attached to the Cochet-Bonnet aesthesiometer was contacted the center of the cornea of the animal. […] When the animal was judged to have corneal sensitivity twice or more, the maximum value (the longest length of the nylon filament of the aesthesiometer) was recorded as corneal sensitivity of the individual at that measurement time point. The measurement was blind trial so that an examiner could not know which group the rabbit being measured belonged to. […]

His-Ser-Asp-Ala-Ile-Phe-Thr-Asp-Ser-Tyr-Ser-Arg-Tyr-Arg-Arg-Gln-Leu-Ala-Val-Arg-Arg-Tyr-Leu-Ala-Ala-Val-Leu-Gly-Arg-Arg-NH2 (HSDAIFTDSYSRYRRQLAVRRYLAAVLGRR-NH2) [Peptide 24]
protein secretion rate of excised lacrimal gland compared with control group [1]: significant increase
corneal sensitivity (Cochet-Bonnet aesthesiometer) compared with control group [2]: statistically significant improving effect
